Molecular target: T1, EGFR TMLRCS (T790M/L858R/C797S), BaF3-TMLRCS cell line (Homo sapiens, UniProt P00533, C797S/L858R/T790M)
T1 construct: host or cells: BaF3 (BaF3-TMLRCS, puromycin selection)
Assay: HTRF Phospho EGFR TMLRCS assay (cellular)
Assay type: cell-based
Conditions: BaF3-TMLRCS cells, 4 hours incubation, Phospho-EGFR HTRF readout
Procedure: HTRF Phospho EGFR TMLRCS Assay (Cellular)
BaF3-TMLRCS cell line were obtained from Crownbio (San Diego, Calif., USA). Cells were maintained at 37° C., 5% CO2 in RPMI ATCC (Gibco 31870)+2 mM Glutamine+0.5 μg/ml Puromycin supplemented with 10% fetal bovine serum (FBS) (Gibco).
Cells are transferred as above to Greiner Bio-One, Nr. 784-08 micro-titerplate at 20000 cells/well in 12.5 μl of growth medium/well after the plates had been pre-filled with 12.5 nl of DMSO solutions of the to be tested compounds (in dose response) or DMSO only. After spinning the plates at 300×g for 30 seconds the cells were incubated for 4 hours at 37 C, 5% CO2, 95% humidity. The cells were lysed by adding to the compound mix 4 μl/well of the supplemented lysis buffer (Cis-bio, Phospho-EGFR HTRF kit, 64EG1PEH), followed by incubation for 30 min at room temperature with shaking (400 rpm). The plates were then frozen and stored overnight at −80 C. On the next day and after thawing the plates, 4 μl of a mixture of anti-Phospho-EGFR Cryptate and of anti-Phospho-EGFR-d2 antibody solutions prepared in the supplied detection buffer was added to each well. The lidded plates were then incubated for 4 h at room temperature before reading the fluorescence emission at 616 and 665 nm using an Envision reader (Perkin Elmer). Data was analyzed in similar fashion as above using the normalized ratio of the 665 to 616 signals multiplied by 10000.

T1 sequence (P00533 25-1210 T790M/C797S/L858R): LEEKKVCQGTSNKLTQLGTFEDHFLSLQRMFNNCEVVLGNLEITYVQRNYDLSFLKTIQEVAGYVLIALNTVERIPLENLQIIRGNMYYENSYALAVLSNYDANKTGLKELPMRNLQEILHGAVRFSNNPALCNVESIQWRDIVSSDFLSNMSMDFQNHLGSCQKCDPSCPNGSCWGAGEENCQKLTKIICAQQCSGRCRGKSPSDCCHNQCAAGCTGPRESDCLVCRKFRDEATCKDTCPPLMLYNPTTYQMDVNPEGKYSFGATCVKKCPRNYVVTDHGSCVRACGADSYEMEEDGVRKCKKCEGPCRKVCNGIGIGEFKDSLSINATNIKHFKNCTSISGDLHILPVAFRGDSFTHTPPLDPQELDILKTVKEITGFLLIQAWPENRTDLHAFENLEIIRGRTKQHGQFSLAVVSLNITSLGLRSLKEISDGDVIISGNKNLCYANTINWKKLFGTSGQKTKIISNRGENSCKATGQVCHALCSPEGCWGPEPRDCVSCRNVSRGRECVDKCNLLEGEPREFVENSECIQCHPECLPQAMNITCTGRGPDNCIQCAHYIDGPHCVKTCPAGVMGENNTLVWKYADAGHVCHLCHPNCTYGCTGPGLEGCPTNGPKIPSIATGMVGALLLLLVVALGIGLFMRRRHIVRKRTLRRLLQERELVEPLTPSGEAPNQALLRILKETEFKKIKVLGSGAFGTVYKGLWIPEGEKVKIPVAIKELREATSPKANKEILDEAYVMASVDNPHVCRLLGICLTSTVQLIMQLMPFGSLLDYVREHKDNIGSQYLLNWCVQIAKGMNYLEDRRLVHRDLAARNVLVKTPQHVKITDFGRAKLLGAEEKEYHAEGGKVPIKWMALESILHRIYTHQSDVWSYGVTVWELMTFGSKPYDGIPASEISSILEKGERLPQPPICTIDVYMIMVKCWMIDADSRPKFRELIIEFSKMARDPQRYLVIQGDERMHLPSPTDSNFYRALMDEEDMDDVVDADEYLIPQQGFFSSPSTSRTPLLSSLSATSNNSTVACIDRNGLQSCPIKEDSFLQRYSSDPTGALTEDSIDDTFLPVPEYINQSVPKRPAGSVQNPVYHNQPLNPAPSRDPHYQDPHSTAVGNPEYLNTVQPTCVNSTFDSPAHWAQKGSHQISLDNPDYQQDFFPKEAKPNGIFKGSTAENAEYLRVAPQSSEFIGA

IC50 [µM] | SMILES
0.012 | CCN1CCC(c2ccc(-c3cc(F)c4c(c3)C(=O)N(C(C(=O)Nc3nccs3)c3cc(F)ccc3O)C4)cc2)CC1 (racemic) [Example 1, (2RS)-2-[6-[4-(1-Ethyl-4-piperidyl)phenyl]-4-fluoro-1-oxo-isoindolin-2-yl]-2-(5-fluoro-2-hydroxy-phenyl)-N-thiazol-2-yl-acetamide]
0.009 | O=C(Nc1nccs1)C(c1cc(F)ccc1O)N1Cc2c(F)cc(-c3ccc(C4CCN(CCF)CC4)cc3)cc2C1=O (racemic) [Example 3, (2RS)-2-[4-Fluoro-6-[4-[1-(2-fluoroethyl)-4-piperidyl]phenyl]-1-oxo-isoindolin-2-yl]-2-(5-fluoro-2-hydroxy-phenyl)-N-thiazol-2-yl-acetamide]
0.011 | CCN1CCC(c2ccc(-c3cc(F)c4c(c3Cl)C(=O)N(C(C(=O)Nc3nccs3)c3cc(F)ccc3O)C4)cc2)CC1 (racemic) [Example 2, (2RS)-2-[7-Chloro-6-[4-(1-ethyl-4-piperidyl)phenyl]-4-fluoro-1-oxo-isoindolin-2-yl]-2-(5-fluoro-2-hydroxy-phenyl)-N-thiazol-2-yl-acetamide]
